Source: patent publication US20240101572A1, “DIHYDROOXADIAZINONE COMPOUND AND PHARMACEUTICAL USE THEREOF” (Japan Tobacco Inc., priority 2022, published 2024)
Read-outs that look alike come from different tables or passages of the source.

Experiments:
full-length human PLD2 = full-length human PLD2 (Homo sapiens (Human), UniProt O14939); assay: Evaluation of human PLD2 enzyme inhibitory activity (Amplex Red / choline oxidase fluorescence); format: biochemical
In short: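 Released choline was read by Amplex Red fluorescence coupled to choline oxidase and HRP after a 60 min room-temperature reaction. Substrate was diheptanoyl phosphatidylcholine, added as a 6 mmol/L solution, and enzyme was FLAG-tagged full-length human PLD2 from Expi293F, added as a 6 nmol/L solution. Buffer was 50 mM HEPES pH 7.5 with 5% final DMSO.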

full-length human PLD1 = full-length human PLD1 (Homo sapiens (Human), UniProt Q13393); assay: Evaluation of human PLD1 enzyme inhibitory activity (Amplex Red / choline oxidase fluorescence); format: biochemical
Chain of full-length human PLD1 (Q13393 other isoform, or with tags, fused parts or gaps): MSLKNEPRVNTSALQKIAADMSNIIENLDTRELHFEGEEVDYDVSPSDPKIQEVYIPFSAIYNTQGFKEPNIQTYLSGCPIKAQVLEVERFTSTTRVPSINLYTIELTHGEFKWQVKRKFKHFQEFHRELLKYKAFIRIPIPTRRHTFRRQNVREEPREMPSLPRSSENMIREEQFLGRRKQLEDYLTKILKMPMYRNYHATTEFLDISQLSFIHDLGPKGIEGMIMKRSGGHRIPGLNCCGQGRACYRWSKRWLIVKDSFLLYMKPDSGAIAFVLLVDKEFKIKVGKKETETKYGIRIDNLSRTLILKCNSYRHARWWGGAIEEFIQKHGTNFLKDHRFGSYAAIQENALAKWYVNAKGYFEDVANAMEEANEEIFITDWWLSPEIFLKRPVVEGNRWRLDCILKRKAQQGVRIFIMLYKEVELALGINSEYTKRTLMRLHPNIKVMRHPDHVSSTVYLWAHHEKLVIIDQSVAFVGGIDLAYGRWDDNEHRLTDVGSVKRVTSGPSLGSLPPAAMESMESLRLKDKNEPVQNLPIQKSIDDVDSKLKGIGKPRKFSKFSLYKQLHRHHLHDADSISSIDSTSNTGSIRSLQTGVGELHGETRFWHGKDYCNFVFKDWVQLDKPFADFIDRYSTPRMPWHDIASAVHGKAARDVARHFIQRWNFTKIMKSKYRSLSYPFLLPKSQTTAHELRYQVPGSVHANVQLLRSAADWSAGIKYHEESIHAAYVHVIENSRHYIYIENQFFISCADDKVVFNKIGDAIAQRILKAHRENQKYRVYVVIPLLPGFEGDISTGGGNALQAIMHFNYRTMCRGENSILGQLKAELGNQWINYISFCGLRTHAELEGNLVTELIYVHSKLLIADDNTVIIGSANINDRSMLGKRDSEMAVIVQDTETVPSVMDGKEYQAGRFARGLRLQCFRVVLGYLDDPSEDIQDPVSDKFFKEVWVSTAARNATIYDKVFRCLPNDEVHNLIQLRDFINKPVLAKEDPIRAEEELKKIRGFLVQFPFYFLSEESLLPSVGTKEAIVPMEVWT
In short: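 Fluorescence read-out couples choline to Amplex Red via choline oxidase and peroxidase after a 60 min room-temperature reaction. Enzyme: FLAG-tagged full-length human PLD1 from Expi293F cells, anti-FLAG purified; substrate diheptanoyl phosphatidylcholine; HEPES pH 7.5 assay buffer with 0.01% NP-40, 0.1% BSA, 5% DMSO final.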

[1] = full-length human PLD2 enzyme, read-out: PLD2 IC50
[2] = full-length human PLD1 enzyme, read-out: PLD1 IC50
[3] = column 2 of continuation tables 2-12 to 2-14, read-out: human PLD2 enzyme inhibitory activity IC50
[4] = column 1 of continuation tables 2-12 to 2-14, read-out: human PLD1 enzyme inhibitory activity IC50

Chain of full-length human PLD2 (O14939 whole entry): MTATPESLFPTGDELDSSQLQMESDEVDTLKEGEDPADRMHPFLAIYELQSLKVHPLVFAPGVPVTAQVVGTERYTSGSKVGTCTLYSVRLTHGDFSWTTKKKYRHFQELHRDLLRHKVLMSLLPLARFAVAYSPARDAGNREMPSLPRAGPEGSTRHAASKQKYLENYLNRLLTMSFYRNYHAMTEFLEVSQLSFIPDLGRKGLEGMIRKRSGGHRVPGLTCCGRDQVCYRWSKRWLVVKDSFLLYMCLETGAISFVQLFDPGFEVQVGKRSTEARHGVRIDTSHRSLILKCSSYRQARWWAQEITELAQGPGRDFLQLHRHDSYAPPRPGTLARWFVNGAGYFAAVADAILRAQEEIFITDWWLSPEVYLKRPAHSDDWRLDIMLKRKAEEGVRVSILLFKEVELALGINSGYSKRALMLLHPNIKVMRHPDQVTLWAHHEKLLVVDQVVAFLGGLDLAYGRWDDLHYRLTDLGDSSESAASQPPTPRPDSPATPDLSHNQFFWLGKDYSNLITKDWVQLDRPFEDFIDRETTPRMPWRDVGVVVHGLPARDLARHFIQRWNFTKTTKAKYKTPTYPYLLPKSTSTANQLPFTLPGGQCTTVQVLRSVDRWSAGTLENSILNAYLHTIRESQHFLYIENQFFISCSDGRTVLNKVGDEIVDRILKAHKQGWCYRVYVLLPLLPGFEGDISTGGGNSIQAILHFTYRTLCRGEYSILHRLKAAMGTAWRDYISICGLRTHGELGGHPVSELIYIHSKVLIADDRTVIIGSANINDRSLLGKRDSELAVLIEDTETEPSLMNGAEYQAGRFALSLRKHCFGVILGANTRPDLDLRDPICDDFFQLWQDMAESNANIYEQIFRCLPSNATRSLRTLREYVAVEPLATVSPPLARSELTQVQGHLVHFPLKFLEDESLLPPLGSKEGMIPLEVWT

| Structure (SMILES) | IC50 (full-length human PLD2; [1]) | IC50 (full-length human PLD1; [2]) | further results |
| --- | --- | --- | --- |
| Cc1cc(N2CCOCC2)ccc1C1=NNC(=O)O[C@]12CC[C@@H](C[C@H](C)NC(=O)C(=O)NC1CC1)CC2 [Example 218] | 0.013 µM | 0.023 µM |  |
| COc1cc(C)c(C2=NNC(=O)O[C@]23CC[C@@H](C[C@H](C)NC(=O)NCc2ccccn2)CC3)cn1 [Example 261] | 0.313 µM | 0.168 µM |  |
| COc1ccc(C2=NNC(=O)O[C@]23CC[C@@H](C[C@H](C)NC(=O)c2cc(Cl)no2)CC3)c(Br)c1 [Example 59] | < 0.01 µM | < 0.01 µM |  |
| C[C@@H](CN1CCC2(CC1)OC(=O)NN=C2c1ccc(F)cc1)NC(=O)c1cc2cc(F)ccc2[nH]1 [Example 1] | < 0.01 µM | 0.033 µM |  |
| CNC(=O)C(=O)N[C@@H](C)C[C@H]1CC[C@]2(CC1)OC(=O)NN=C2c1ccc(C#N)cc1Br [Example 57, N^1—((S)-1-(cis-5-(2-bromo-4-cyanophenyl)-2-oxo-1-oxa-3,4-diazaspiro[5.5]undec-4-en-9-yl)propan-2-yl)-N^2-methyloxamide] | < 0.01 µM | 0.016 µM |  |
| C[C@@H](C[C@H]1CC[C@]2(CC1)OC(=O)NN=C2c1ccc(C#N)cc1Br)NC(=O)c1cc(Cl)no1 [Example 71] | < 0.01 µM | < 0.01 µM |  |
| C[C@@H](C[C@H]1CC[C@]2(CC1)OC(=O)NN=C2c1ccc(F)cc1Cl)NC(=O)c1cc(Cl)no1 [Example 63] | < 0.01 µM | < 0.01 µM |  |
| C[C@@H](C[C@H]1CC[C@]2(CC1)OC(=O)NN=C2c1ccc(Br)cc1)NC(=O)c1cc2ccccc2o1 [Example 50] | 0.051 µM | 0.033 µM |  |
| Cc1cc(C(=O)N[C@@H](C)CN2CCC3(CC2)OC(=O)NN=C3c2ccc(F)cc2Cl)[nH]n1 [Example 93] | < 0.01 µM | 0.032 µM |  |
| C[C@@H](C[C@H]1CC[C@]2(CC1)OC(=O)NN=C2c1ccc(F)cc1Br)NC(=O)N1CCC2(CC2)C1 [Example 282] | 0.146 µM | 0.097 µM |  |
| Cc1cc(C(=O)N[C@@H](C)C[C@H]2CC[C@]3(CC2)OC(=O)NN=C3c2ccc(S(C)(=O)=O)cc2)[nH]n1 [Example 9] | 0.056 µM | 0.083 µM |  |
| CNC(=O)C(=O)N[C@@H](C)C[C@H]1CC[C@]2(CC1)OC(=O)NN=C2c1ccc(C(C)(C)O)cc1Br [Example 96] | < 0.01 µM | 0.018 µM |  |
| C[C@@H](C[C@H]1CC[C@]2(CC1)OC(=O)NN=C2c1ccc(F)cc1Br)NC(=O)C1(F)CC1 [Example 35] | 0.367 µM | 0.257 µM |  |
| Cc1cc(C(=O)N[C@@H](C)CN2CC[C@@]3(C[C@H]2C)OC(=O)NN=C3c2ccc(C#N)cc2Cl)[nH]n1 [Example 232] | 2.13 µM | 2.58 µM |  |
| [2H]C([2H])([2H])NC(=O)C(=O)N[C@@H](C)C[C@]1(C#N)CC[C@@]2(CC1)OC(=O)NN=C2c1cc(OC(F)(F)F)ccc1Br [Example 2-132] |  |  | IC50 (full-length human PLD2; [3]): < 0.01 µM; IC50 (full-length human PLD1; [4]): 0.011 µM |
| Cc1cc(C(=O)N[C@@H](C)CN2CCC3(CC2)OC(=O)NN=C3c2cc(C#N)ccc2Br)[nH]n1 [Example 301] | < 0.01 µM | 0.03 µM |  |
| [2H]C([2H])([2H])NC(=O)C(=O)N[C@@H](C)C[C@]1(C#N)CC[C@@]2(CC1)OC(=O)NN=C2c1cccc(C(F)(F)F)c1Br [Example 2-118] |  |  | IC50 (full-length human PLD2; [3]): < 0.01 µM; IC50 (full-length human PLD1; [4]): 0.019 µM |
| CNC(=O)C(=O)N[C@@H](C)C[C@]1(C#N)CC[C@@]2(CC1)OC(=O)NN=C2c1cc(OC(F)(F)F)ccc1Br [Example 2-080] | < 0.01 µM | < 0.01 µM |  |
| COc1cc(C)c(C2=NNC(=O)O[C@]23CC[C@@H](C[C@H](C)NC(=O)N2CCn4c(nnc4C(F)(F)F)C2)CC3)cn1 [Example 259] | 2.5 µM | 1.45 µM |  |
| CNC(=O)C(=O)N[C@@H](C)C[C@H]1CC[C@]2(CC1)OC(=O)NN=C2c1ccc(OCC(F)F)cc1Br [Example 85] | < 0.01 µM | 0.012 µM |  |
| C[C@@H](C[C@H]1CC[C@]2(CC1)OC(=O)NN=C2c1ccc(OCC(C)(C)O)cc1Br)NC(=O)c1cc2ccccc2o1 [Example 132] | < 0.01 µM | 0.014 µM |  |
| CNC(=O)C(=O)N[C@@H](C)C[C@H]1CC[C@]2(CC1)OC(=O)NN=C2c1ccc(F)cc1Cl [Example 44] | < 0.01 µM | 0.018 µM |  |
| CNC(=O)C(=O)N[C@@H](C)C[C@H]1CC[C@]2(CC1)OC(=O)NN=C2c1ccccc1SC(F)(F)F [Example 2-019] | < 0.01 µM | 0.012 µM |  |
| C[C@@H](C[C@H]1CC[C@]2(CC1)OC(=O)NN=C2c1ccc(F)cc1C1CC1)NC(=O)c1cc(Cl)no1 [Example 65] | < 0.01 µM | < 0.01 µM |  |

| Structure (SMILES) | IC50 (full-length human PLD2; [1]) | IC50 (full-length human PLD1; [2]) | further results |
| --- | --- | --- | --- |
| CNC(=O)C(=O)N[C@H](C)C[C@H]1CC[C@@]2(CC1)OC(=O)NN=C2c1cc(C#N)ccc1Br [Example 2-150] |  |  | inhibition at 10 µM (full-length human PLD2; read-out: human PLD2 % inhibition at 10 μM): 30%; inhibition at 10 µM (full-length human PLD2; read-out: inhibition rate of PLD2 at 10 μM compound): 30%; inhibition at 10 µM (full-length human PLD1; read-out: human PLD1 % inhibition at 10 μM): 25%; inhibition at 10 µM (full-length human PLD1; read-out: inhibition rate of PLD1 at 10 μM compound): 25% |
| C[C@@H](CN1CCC2(CC1)OC(=O)NN=C2c1ccc(F)cc1Br)NC(=O)c1cnn(C)c1 [Example 254] | < 0.01 µM | 0.029 µM |  |
| [2H]C([2H])([2H])NC(=O)C(=O)NC(C)CN1CCC2(CC1)OC(=O)NN=C2c1cc(C#N)ccc1Cl (centres unmarked) [Example 2-008] | 0.011 µM | 0.062 µM |  |
| C[C@@H](C[C@H]1CC[C@]2(CC1)OC(=O)NN=C2c1ccc(S(C)(=O)=O)cc1Cl)NC(=O)c1cc2ccccc2o1 [Example 53] | < 0.01 µM | 0.019 µM |  |
| CNC(=O)C(=O)N[C@@H](C)C[C@H]1CC[C@]2(CC1)OC(=O)NN=C2c1cccc(OC(F)F)c1Br [Example 306] | < 0.01 µM | < 0.01 µM |  |
| Cc1cc(C(=O)N[C@@H](C)C[C@]2(O)CC[C@]3(CC2)OC(=O)NN=C3c2ccc(F)cc2Br)[nH]n1 [Example 320, N—((S)-1-(cis-5-(2-bromo-4-fluorophenyl)-9-hydroxy-2-oxo-1-oxa-3,4-diazaspiro[5.5]undec-4-en-9-yl)propan-2-yl)-3-methyl-1H-pyrazole-5-carboxamide] | 1.58 µM | 3.88 µM |  |
| CNC(=O)C(=O)N[C@@H](C)CC1CCC2(CC1)OC(=O)NN=C2c1ccncc1Br (mixture of isomers) [Example 120] | 0.011 µM | 0.012 µM |  |
| C[C@@H](C[C@H]1CC[C@]2(CC1)OC(=O)NN=C2c1ccc(F)cc1Br)NC(=O)C1CC1c1ccccc1 (single isomer, unassigned) [Example 38] | 0.088 µM | 0.035 µM |  |
| Cc1cc(C(=O)N[C@@H](C)C[C@H]2CC[C@]3(CC2)OC(=O)NN=C3c2cccc3c2OCC3)[nH]n1 [Example 107] | 0.139 µM | 0.085 µM |  |
| CNC(=O)C(=O)N[C@@H](C)C[C@H]1CC[C@]2(CC1)OC(=O)NN=C2c1cnc(C(C)=O)cc1C [Example 193] | 0.046 µM | 0.055 µM |  |
| C[C@@H](CN1CCC2(CC1)OC(=O)NN=C2c1ccc(C#N)cc1Br)NC(=O)c1cn(C)cn1 [Example 2-060] | 0.011 µM | 0.027 µM |  |
| CNC(=O)C(=O)N[C@@H](C)C[C@H]1CC[C@]2(CC1)OC(=O)NN=C2c1cc(C(=O)N2CCC(F)(F)C2)ccc1Br [Example 2-056] | < 0.01 µM | 0.017 µM |  |
| C[C@@H](CN1CCC2(CC1)OC(=O)NN=C2c1ccc(F)cc1Br)NC(=O)NC1CC1 [Example 189] | 0.14 µM | 0.13 µM |  |
| C[C@@H](C[C@H]1CC[C@]2(CC1)OC(=O)NN=C2c1cc(C(C)(C)O)ccc1Br)NC(=O)c1cnn(C)c1 [Example 2-027] | < 0.01 µM | 0.013 µM |  |
| C[C@@H](C[C@H]1CC[C@]2(CC1)OC(=O)NN=C2c1cc(C#N)ccc1Br)NC(=O)C(=O)NC1CC1 [Example 292] | < 0.01 µM | 0.023 µM |  |
| COc1cc(C)c(C2=NNC(=O)O[C@]23CC[C@@H](C[C@H](C)NC(=O)N2CCn4nccc4C2)CC3)cn1 [Example 237] | < 0.01 µM | 0.034 µM |  |
| C[C@@H](C[C@H]1CC[C@]2(CC1)OC(=O)NN=C2c1ccc(F)cc1)NC(=O)c1cc2cc(F)ccc2[nH]1 [Example 4] | 0.011 µM | 0.036 µM |  |
| CNC(=O)C(=O)N[C@@H](C)C[C@H]1CC[C@]2(CC1)OC(=O)NN=C2c1cc(C(=O)NC)ccc1Br [Example 2-035] | < 0.01 µM | 0.021 µM |  |
| COc1cc(C)c(C2=NNC(=O)O[C@]23CC[C@@H](C[C@H](C)NC(=O)N2CCc4ccccc4C2)CC3)cn1 [Example 236] | < 0.01 µM | 0.015 µM |  |
| CNC(=O)C(=O)N[C@@H](C)CN1CCC2(CO1)OC(=O)NN=C2c1cc(C#N)ccc1Br (some centres unmarked) [Example 2-025] | 0.205 µM | 0.219 µM |  |
| C[C@@H](C[C@H]1CC[C@]2(CC1)OC(=O)NN=C2c1ccc(F)cc1Br)NC(=O)CC#N [Example 41] | 0.5 µM | 0.229 µM |  |
| C[C@@H](C[C@H]1CC[C@]2(CC1)OC(=O)NN=C2c1ccc(F)cc1Br)NC(=O)C1CC1c1ccccc1 (single isomer, unassigned) [Example 39] | 0.024 µM | 0.093 µM |  |
| C[C@@H](C[C@H]1CC[C@]2(CC1)OC(=O)NN=C2c1ccc(F)cc1Br)NC(=O)c1cc(C(F)(F)F)n[nH]1 [Example 72] | 0.024 µM | 0.034 µM |  |
| CNC(=O)C(=O)N[C@@H](C)C[C@]1(C#N)CC[C@@]2(CC1)OC(=O)NN=C2c1ccc(C#N)cc1Br [Example 2-065] | < 0.01 µM | 0.021 µM |  |
